From PubChem BioAssay AID248 (DTP/NCI, 2004)
Values joined by “and” are separate entries in the source; they are usually repeats but may differ in a detail not shown here. Equal entries are not always repeated. Toxic doses and inconclusive results are not listed. Rule as the data show it: active = T/C of 150% or more; inactive = T/C below 125%.

Tested on: L1210 leukemia ip in BDF1 mice, survival T/C
Experiment: NCI In Vivo Anticancer Drug Screen. Data for tumor model L1210 Leukemia (intraperitoneal) in B6D2F1 (BDF1) mice
Settings: endpoint: mean survival time, higher = longer survival
Method in brief: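 Ratio derived from survival: compound-dosed mice over vehicle-dosed mice, all bearing a transplantable tumor.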

[1] = dose: 100.0 mg/kg/injection, schedule: Q04DX003 (ip), vehicle: saline
[2] = dose: 200.0 mg/kg/injection, schedule: Q04DX003 (ip), vehicle: saline
[3] = dose: 400.0 mg/kg/injection, schedule: Q04DX003 (ip), vehicle: saline
[4] = dose: 25.0 mg/kg/injection, schedule: Q04DX002 (ip), vehicle: Klucel (hydroxypropylcellulose) (HPC)
[5] = dose: 50.0 mg/kg/injection, schedule: Q04DX002 (ip), vehicle: Klucel (hydroxypropylcellulose) (HPC)
[6] = dose: 100.0 mg/kg/injection, schedule: Q01DX009 (ip), vehicle: Klucel (hydroxypropylcellulose) (HPC)
[7] = dose: 100.0 mg/kg/injection, schedule: Q04DX003 (ip), vehicle: Klucel (hydroxypropylcellulose) (HPC)
[8] = dose: 200.0 mg/kg/injection, schedule: Q01DX009 (ip), vehicle: Klucel (hydroxypropylcellulose) (HPC)
[9] = dose: 200.0 mg/kg/injection, schedule: Q04DX003 (ip), vehicle: Klucel (hydroxypropylcellulose) (HPC)
[10] = dose: 400.0 mg/kg/injection, schedule: Q01DX009 (ip), vehicle: Klucel (hydroxypropylcellulose) (HPC)
[11] = dose: 400.0 mg/kg/injection, schedule: Q04DX003 (ip), vehicle: Klucel (hydroxypropylcellulose) (HPC)
[12] = dose: 50.0 mg/kg/injection, schedule: Q04DX003 (ip), vehicle: Klucel (hydroxypropylcellulose) (HPC)
[13] = dose: 100.0 mg/kg/injection, schedule: Q01DX001 (ip), vehicle: Klucel (hydroxypropylcellulose) (HPC)
[14] = dose: 100.0 mg/kg/injection, schedule: Q04DX003 (ip), vehicle: saline with Tween-80
[15] = dose: 100.0 mg/kg/injection, schedule: Q04DX002 (ip), vehicle: Klucel (hydroxypropylcellulose) (HPC)
[16] = dose: 100.0 mg/kg/injection, schedule: Q01DX001 (ip), vehicle: saline
[17] = dose: 200.0 mg/kg/injection, schedule: Q01DX001 (ip), vehicle: saline
[18] = dose: 400.0 mg/kg/injection, schedule: Q01DX001 (ip), vehicle: saline
[19] = dose: 100.0 mg/kg/injection, schedule: Q01DX001 (ip), vehicle: carboxymethylcellulose (CMC)
[20] = dose: 200.0 mg/kg/injection, schedule: Q01DX001 (ip), vehicle: carboxymethylcellulose (CMC)
[21] = dose: 400.0 mg/kg/injection, schedule: Q01DX001 (ip), vehicle: carboxymethylcellulose (CMC)

Measured: T/C

CCc1cc(CC)c(CC)c(CC)c1
inactive: dose: 100.0 mg/kg/injection, schedule: Q01DX009 (ip), vehicle: saline 100 % of control | [1] 107 % of control | dose: 200.0 mg/kg/injection, schedule: Q01DX009 (ip), vehicle: saline 87 % of control | [2] 105 % of control | dose: 400.0 mg/kg/injection, schedule: Q01DX009 (ip), vehicle: saline 108 % of control | [3] 91 % of control

Cc1ccc(C(=O)c2ccc(C)cc2)cc1
inactive: dose: 12.5 mg/kg/injection, schedule: Q04DX002 (ip), vehicle: Klucel (hydroxypropylcellulose) (HPC) 91 % of control | [4] 94 % of control | [5] 97 % of control | [6] 101 % of control | dose: 100.0 mg/kg/injection, schedule: Q04DX002 (ip), vehicle: saline 101 % of control | [7] 100 % of control | [8] 97 % of control | dose: 200.0 mg/kg/injection, schedule: Q04DX002 (ip), vehicle: saline 101 % of control | [9] 89 % of control | [10] 98 % of control | [11] 100 % of control

Cn1cnnc1[N+](=O)[O-]
inactive: dose: 100.0 mg/kg/injection, schedule: Q04DX003 (ip), vehicle: saline sonified 105 % of control

COc1cc2c(cc1OC)C13CCN4CC5=CCOC6CC(=O)N2C1C6C5CC43 (configuration not stated) (tested in a mixture with another compound)
inactive: dose: 12.0 mg/kg/injection, schedule: Q01DX001 (ip), vehicle: Klucel (hydroxypropylcellulose) (HPC) 89 % of control | dose: 12.0 mg/kg/injection, schedule: Q01DX009 (ip), vehicle: Klucel (hydroxypropylcellulose) (HPC) 97 % of control | dose: 12.5 mg/kg/injection, schedule: Q01DX001 (ip), vehicle: Klucel (hydroxypropylcellulose) (HPC) 101 % of control | dose: 12.5 mg/kg/injection, schedule: Q01DX009 (ip), vehicle: saline 97 % of control | dose: 25.0 mg/kg/injection, schedule: Q01DX001 (ip), vehicle: Klucel (hydroxypropylcellulose) (HPC) 95 % of control and 93 % of control | dose: 25.0 mg/kg/injection, schedule: Q01DX001 (ip), vehicle: saline with Tween-80 89 % of control | dose: 25.0 mg/kg/injection, schedule: Q01DX009 (ip), vehicle: Klucel (hydroxypropylcellulose) (HPC) 96 % of control | dose: 25.0 mg/kg/injection, schedule: Q01DX009 (ip), vehicle: saline 97 % of control | dose: 25.0 mg/kg/injection, schedule: Q04DX003 (ip), vehicle: Klucel (hydroxypropylcellulose) (HPC) 104 % of control | dose: 25.0 mg/kg/injection, schedule: Q04DX003 (ip), vehicle: saline with Tween-80 94 % of control | dose: 25.0 mg/kg/injection, schedule: Q04DX003 (ip), vehicle: saline 111 % of control | dose: 50.0 mg/kg/injection, schedule: Q01DX001 (ip), vehicle: Klucel (hydroxypropylcellulose) (HPC) 100 % of control and 102 % of control | dose: 50.0 mg/kg/injection, schedule: Q01DX001 (ip), vehicle: saline with Tween-80 96 % of control | dose: 50.0 mg/kg/injection, schedule: Q01DX009 (ip), vehicle: Klucel (hydroxypropylcellulose) (HPC) 91 % of control | dose: 50.0 mg/kg/injection, schedule: Q01DX009 (ip), vehicle: saline 106 % of control | [12] 107 % of control | dose: 50.0 mg/kg/injection, schedule: Q04DX003 (ip), vehicle: saline with Tween-80 100 % of control | dose: 50.0 mg/kg/injection, schedule: Q04DX003 (ip), vehicle: saline 107 % of control | dose: 75.0 mg/kg/injection, schedule: Q01DX001 (ip), vehicle: other 95 % of control | dose: 75.0 mg/kg/injection, schedule: Q01DX001 (ip), vehicle: saline 98 % of control and 94 % of control and 107 % of control | dose: 75.0 mg/kg/injection, schedule: Q01DX009 (ip), vehicle: saline 107 % of control | [13] 103 % of control | [7] 95 % of control | [14] 89 % of control | dose: 150.0 mg/kg/injection, schedule: Q01DX001 (ip), vehicle: other 86 % of control | dose: 150.0 mg/kg/injection, schedule: Q01DX001 (ip), vehicle: saline 98 % of control | [9] 90 % of control | dose: 300.0 mg/kg/injection, schedule: Q01DX001 (ip), vehicle: other 89 % of control

CCCCCCCCCCCCCCCCN(C)C(=S)c1ccc(Cl)c(Cl)c1
inactive: [13] 100 % of control | [7] 100 % of control | dose: 200.0 mg/kg/injection, schedule: Q01DX001 (ip), vehicle: Klucel (hydroxypropylcellulose) (HPC) 100 % of control | [9] 96 % of control | dose: 400.0 mg/kg/injection, schedule: Q01DX001 (ip), vehicle: Klucel (hydroxypropylcellulose) (HPC) 98 % of control | [11] 91 % of control

C=CS(=O)(=O)c1ccc(C)cc1
inactive: [4] 104 % of control | [5] 110 % of control | [15] 96 % of control and 104 % of control

CC(C)(C)C1=NN=C(C(C)(C)C)CS(=O)C1
inactive: [15] 90 % of control | dose: 200.0 mg/kg/injection, schedule: Q04DX002 (ip), vehicle: Klucel (hydroxypropylcellulose) (HPC) 97 % of control | dose: 400.0 mg/kg/injection, schedule: Q04DX002 (ip), vehicle: Klucel (hydroxypropylcellulose) (HPC) 101 % of control

CCC(C)C(NCc1ccccc1)C(=O)O (configuration not stated)
inactive: dose: 100.0 mg/kg/injection, schedule: Q01DX001 (ip), vehicle: acetone 108 % of control | [1] 102 % of control | dose: 200.0 mg/kg/injection, schedule: Q01DX001 (ip), vehicle: acetone 97 % of control | [2] 93 % of control | dose: 400.0 mg/kg/injection, schedule: Q01DX001 (ip), vehicle: acetone 90 % of control | [3] 96 % of control

O=[N+]([O-])c1ccc(OCCOc2ccc([N+](=O)[O-])cc2)cc1
inactive: [16] 103 % of control | [17] 107 % of control | [18] 97 % of control

NC(C(=O)O)c1ccco1 (configuration not stated)
inactive: [7] 103 % of control | [9] 105 % of control | [11] 101 % of control

Cn1cc(N)c(=O)[nH]c1=O
inactive: dose: 50.0 mg/kg/injection, schedule: Q01DX001 (ip), vehicle: saline 101 % of control | [16] 101 % of control | [17] 101 % of control | [18] 103 % of control

COc1cccc2sc3ccccc3c(=O)c12
inactive: dose: 100.0 mg/kg/injection, schedule: Q01DX009 (ip), vehicle: saline with Tween-80 102 % of control | [14] 101 % of control | dose: 200.0 mg/kg/injection, schedule: Q01DX009 (ip), vehicle: saline with Tween-80 86 % of control | dose: 200.0 mg/kg/injection, schedule: Q04DX003 (ip), vehicle: saline with Tween-80 102 % of control | dose: 400.0 mg/kg/injection, schedule: Q01DX009 (ip), vehicle: saline with Tween-80 87 % of control | dose: 400.0 mg/kg/injection, schedule: Q04DX003 (ip), vehicle: saline with Tween-80 87 % of control

c1ccc(-c2[nH]c3ccccc3c2-c2ccccc2)cc1
inactive: [12] 90 % of control | [6] 106 % of control | [7] 98 % of control | [8] 103 % of control | [9] 106 % of control | [10] 96 % of control | [11] 92 % of control

Fc1cc(N(CCCl)CCCl)ccc1C1N(Cc2ccc(N(CCCl)CCCl)cc2Cl)CCCN1Cc1ccc(N(CCCl)CCCl)cc1Cl
inactive: dose: 50.0 mg/kg/injection, schedule: Q01DX001 (ip), vehicle: carboxymethylcellulose (CMC) 96 % of control | [19] 105 % of control | [20] 96 % of control | [21] 100 % of control

Cc1cc(Sc2ccccc2)c2c(C)ccc(C(C)C)cc1-2
inactive: [19] 95 % of control | [20] 97 % of control | [21] 95 % of control

O=C(O)c1cccc2c1oc1c(O)cccc12
inactive: [4] 93 % of control | [5] 90 % of control | [15] 93 % of control
